Read-outs that look alike come from different tables or passages of the source.
Tests used:
[1] = system: maize line C28 callus; assay: Four week callus growth inhibition study, resistant line C28; format: cell-based
Description: (§1) The tryptophan analog, 5-methyltryptophan (5MT), was used for selection of tryptophan overproducer mutants as discussion in Section 5 supra. The effect of various concentrations of 5MT on callus growth on solid media was determined. Quantities of tissue averaging 50 mg in size were transferred to nutrient agar maintenance media containing 5MT concentrations ranging from 1.0 to 200 μM. Four tissue pieces were placed on each plate with four plates per analog concentration. After 28 days growth, the tissue was weighed again.
For each transfer all tissue showing growth and somatic embryo forming ability were placed on fresh media. At the third transfer, the concentration of 5MT was increased to 100 μM. During the course of the selection process, the total number of lines decreased as the analog mediated growth inhibition became more intense. Two lines however, increased in size and by the end of the fourth month of selection were identified as resistant to 5MT. These cell lines were identified as maize line C28 and C66. […]
Four week growth inhibition studies were carried out with 5MT as described supra. The level of 5MT giving 50% growth inhibition was determined to be between 300 and 400 μM for the C28 line compared to 3 to 10 μM for unselected parent tissue. […]

[2] = system: anthranilate synthase (crude callus extracts: AB108 control, K17 line of C28); assay: Anthranilate synthase assay with 5MT as enzyme inhibitor; format: biochemical, maize; details: 30° C., 30 minutes, 0.25 mM chorismate, 20 mM L-glutamine; FIG. 4
Description: Assays were conducted to determine whether 5MT resistance was conferred by an alteration in the gene that codes for the anthranilate synthase enzyme. Crude enzyme extract of AB108 control callus and the selected K17 line of C28 callus were prepared as described below. The K17 line of C28 was derived from a regenerated C28 plant crossed with a control plant and then self-pollinated. Immature embryos were then cultured and a callus line developed as described previously.
Plant callus tissue was ground using a mortar and pestle and extracted with 0.2 M Tris-HCl, pH 8.2, 60% glycerol, 0.2 mM dithiothreitol (DTT), 0.2 mM ethylenediaminetetraacetic acid (EDTA), 1.0 mM magnesium sulfate (MgSO4), 20 mM sodium chloride (NaCl) and 1.0 mM L-tryptophan. One ml extraction buffer was used per 2 g callus. The extract was centrifuged at 10,000×g for 25 minutes at 4° C. The supernatant was applied to a 3 cm×15 cm Bio Gel-P6 column (Bio-Rad, Richmond, Calif.) equilibrated with 0.1 M Tris-HCl, pH 7.6, 10% glycerol, 0.1 mM DTT and 0.1 mM EDTA and eluted with the same buffer. 0.75 ml fractions were collected and fractions containing protein were pooled. […]
Assays were conducted in 1 ml volumes as follows. […] The fluorescence due to the production of anthranilate was measured in the 3.5 ml extractant using a Kratos FS950 fluorimeter (Kratos Analytical Instruments, Ramsey, N.J.).

[3] = system: maize line C66 callus; assay: Callus growth inhibition study, resistant line C66; format: cell-based; details: C66, 5MT at 100 μM or below
Description: as §1
For each transfer all tissue showing growth and somatic embryo forming ability were placed on fresh media. At the third transfer, the concentration of 5MT was increased to 100 μM. During the course of the selection process, the total number of lines decreased as the analog mediated growth inhibition became more intense. Two lines however, increased in size and by the end of the fourth month of selection were identified as resistant to 5MT. These cell lines were identified as maize line C28 and C66. […] Throughout this selection process, the selected cell lines maintained a friable appearance that was similar to the appearance of the original parent cell line.

[4] = system: maize callus tissue (unselected parent, A188 x B73); assay: Callus culture growth inhibition by 5MT, unselected parent tissue; format: cell-based; details: for IC50: Zea mays, 672 h
Description: Friable, embryogenic maize callus cultures were initiated from hybrid immature embryos produced by pollination of inbred line A188 plants (University of Minnesota, Crop Improvement Association) with pollen of Inbred line B73 plants (Iowa State University). Ears were harvested when embryos had reached a length of 1.5 to 2.0 mm. The whole ear was surface sterilized in […] commercial bleach (2.63% w/v sodium hypochlorite) for 20 minutes at room temperature. The ears were then washed with sterile distilled, deionized water. Immature embryos were aseptically isolated and placed on nutrient agar initiation/maintenance media with the root/shoot axis exposed to the media. Initiation/maintenance media consisted of N6 basal media (Chih-ching in Proceedings of Symposium on Plant Tissue Culture, May 25-30, 1978, Science Press, Peking, pp. 43-50) with 2% (w/v) sucrose, 1.5 mg per liter 2,4-dichlorophenoxyacetic acid (2,4-D), 6 mM proline, and 0.9% (w/v) agar.
The immature embryos were incubated at 26° C. in the dark. Cell proliferations from the scutellum of the immature embryos were evaluated for friable consistency and the presence of well defined somatic embryos. Tissue with this morphology was transferred to fresh media 10 to 14 days after the initial plating of the immature embryos. The tissue was then subcultured on a routine basis every 12 to 16 days. Sixty to eighty milligram quantities of tissue were removed from pieces of tissue that had reached a size of approximately one gram and transferred to fresh media. Subculturing always involved careful visual monitoring to be sure that only tissue of the correct morphology was maintained. The presence of the somatic embryos ensured that the cultures would give rise to plants under the proper conditions.
as §1

SMILES	Growth inhibition by the analog compared to parental cell line AB1 (FIG. 2) ([1]; C28, 5MT at 100 μM or below)	IC50 ([1]; Zea mays, 672 h, C28 line, four week growth inhibition, read-out: Level of 5MT giving 50% growth inhibition)	Fold higher 5MT level needed for 50% inhibition of C28 AS compared with control AS [2]	Growth inhibition by the analog compared to parental cell line AB1 (FIG. 2) [3]	IC50 ([4]; callus on solid maintenance media, 28 days growth, 1.0 to 200 μM 5MT, read-out: 5MT concentration giving half maximal inhibition of growth rate)	IC50 ([4]; unselected parent tissue, four week growth inhibition, read-out: Level of 5MT giving 50% growth inhibition)	Cell death ([4]; analog concentrations of 100 and 200 μM, 28 days)	Reversal of growth inhibitory effects of 5MT ([4]; tryptophan added to 5MT-inhibited callus)
Cc1ccc2[nH]cc(C[C@H](N)C(=O)O)c2c1 [5MT, 5-methyltryptophan]	no longer seriously inhibited	300 to 400 µM	10 fold	no longer seriously inhibited	3 to 10 µM	3 to 10 µM	Cell death was observed	–
N[C@@H](Cc1c[nH]c2ccccc12)C(=O)O [Tryptophan]	–	–	–	–	–	–	–	reverse all the growth inhibitory effects of 5MT
